From publication PMC9613624 (Journal of medicinal chemistry, 2022)
“Also recorded” adds a separate entry of the source.

Key:
P-PRAS40 = test: Western blotting of P-PRAS40 in SW620 cells; conditions: 1 μM
AKT [1] = test: Western blotting of total AKT; format: cell-based; conditions: PC3 cells, 1 μM, 24 h
[2] = tested on: P-AKT (S473), P-PRAS40 (T246), P-S6 (S240/244); test: Western blotting of downstream signaling in PC3 cells; format: cell-based; conditions: 1 μM, 24 h
AKT [3] = test: Western blotting of T-AKT in SW620 cells; format: cell-based; conditions: SW620 cells
AKT [4] = test: Western blotting of T-AKT in PANC-1 cells; format: cell-based; conditions: PANC-1 cells (KRAS mutant), 1 μM, 24 h
SW620 cells = test: Colony formation assay in SW620 cells; format: cell-based; conditions: 2 weeks, crystal violet

Nc1ncccc1-c1nc2ccc(-c3ccccc3)nc2n1-c1ccc(C2(N)CCC2)cc1 [ARQ-092, 3-(3-(4-(1-Aminocyclobutyl)phenyl)-5-phenyl-3H-imidazo[4,5-b]pyridin-2-yl)pyridin −2-amine, reference compound]
phosphorylation of PRAS40 in time-course study (in words) (P-PRAS40; up to 24 h): potently inhibited

Cc1ncsc1-c1ccc(CNC(=O)[C@@H]2C[C@@H](O)CN2C(=O)[C@@H](NC(=O)CNC(=O)CCc2cccc(-c3ccc4nc(-c5cccnc5N)n(-c5ccc(C6(N)CCC6)cc5)c4n3)c2)C(C)(C)C)cc1 [Compound 11, (2S,4R)-1-((S)-2-(2-(3-(3-(3-(4-(1-Aminocyclobutyl)phenyl)-2-(2-aminopyridin-3-yl)-3H-imidazo[4,5-b]pyridin-5-yl)phenyl)propanamido)acetamido)-3,3-dimethylbutanoyl)-4-hydroxy-N-(4-(4-methylthiazol-5-yl)benzyl)pyrrolidine-2-carboxamide]
T-AKT protein level / AKT degradation (western blot, in words) (AKT [1]): completely inactive

Cc1ncsc1-c1ccc(CNC(=O)[C@@H]2C[C@@H](O)CN2C(=O)[C@@H](NC(=O)CCNC(=O)CCc2cccc(-c3ccc4nc(-c5cccnc5N)n(-c5ccc(C6(N)CCC6)cc5)c4n3)c2)C(C)(C)C)cc1 [Compound 12, (2S,4R)-1-((S)-2-(3-(3-(3-(3-(4-(1-Aminocyclobutyl)phenyl)-2-(2-aminopyridin-3-yl)-3H-imidazo[4,5-b]pyridin-5-yl)phenyl)propanamido)propanamido)-3,3-dimethylbutanoyl)-4-hydroxy-N-(4-(4-methylthiazol-5-yl)benzyl)pyrrolidine-2-carboxamide]
T-AKT protein level / AKT degradation (western blot, in words) (AKT [1]): completely inactive

Cc1ncsc1-c1ccc(CNC(=O)[C@@H]2C[C@@H](O)CN2C(=O)[C@@H](NC(=O)CCCCCCCCCCNC(=O)CCc2cccc(-c3ccc4nc(-c5cccnc5N)n(-c5ccc(C6(N)CCC6)cc5)c4n3)c2)C(C)(C)C)cc1 [Compound 20, (2S,4R)-1-((S)-2-(11-(3-(3-(3-(4-(1-Aminocyclobutyl)phenyl)-2-(2-aminopyridin-3-yl)-3H-imidazo[4,5-b]pyridin-5-yl)phenyl)propanamido)undecanamido)-3,3-dimethylbutanoyl)-4-hydroxy-N-(4-(4-methylthiazol-5-yl)benzyl)pyrrolidine-2-carboxamide]
T-AKT protein level / AKT degradation (western blot, in words) (AKT [1]): highly effective AKT degraders

Cc1ncsc1-c1ccc(CNC(=O)[C@@H]2C[C@@H](O)CN2C(=O)[C@@H](NC(=O)COCC(=O)NCCc2cccc(-c3ccc4nc(-c5cccnc5N)n(-c5ccc(C6(N)CCC6)cc5)c4n3)c2)C(C)(C)C)cc1 [Compound 33, (2S,4R)-1-((S)-2-(2-(2-((3-(3-(4-(1-Aminocyclobutyl)phenyl)-2-(2-aminopyridin-3-yl)-3H-imidazo[4,5-b]pyridin-5-yl)phenethyl)amino)-2-oxoethoxy)acetamido)-3,3-dimethylbutanoyl)-4-hydroxy-N-(4-(4-methylthiazol-5-yl)benzyl)pyrrolidine-2-carboxamide]
T-AKT protein level / AKT degradation (western blot, in words) (AKT [1]): effectively induced T-AKT degradation

Cc1ncsc1-c1ccc(CNC(=O)[C@@H]2C[C@@H](O)CN2C(=O)[C@@H](NC(=O)CCOCCC(=O)NCCc2cccc(-c3ccc4nc(-c5cccnc5N)n(-c5ccc(C6(N)CCC6)cc5)c4n3)c2)C(C)(C)C)cc1 [Compound 34, (2S,4R)-1-((S)-2-(3-(3-((3-(3-(4-(1-Aminocyclobutyl)phenyl)-2-(2-aminopyridin-3-yl)-3H-imidazo[4,5-b]pyridin-5-yl)phenethyl)amino)-3-oxopropoxy)propanamido)-3,3-dimethylbutanoyl)-4-hydroxy-N-(4-(4-methylthiazol-5-yl)benzyl)pyrrolidine-2-carboxamide]
T-AKT protein level / AKT degradation (western blot, in words) (AKT [1]): effectively induced T-AKT degradation

Cc1ncsc1-c1ccc(CNC(=O)[C@@H]2C[C@@H](O)CN2C(=O)[C@@H](NC(=O)COCCOCCOCCOCCOCC(=O)NCCc2cccc(-c3ccc4nc(-c5cccnc5N)n(-c5ccc(C6(N)CCC6)cc5)c4n3)c2)C(C)(C)C)cc1 [Compound 40, N^1-(3-(3-(4-(1-Aminocyclobutyl)phenyl)-2-(2-aminopyridin-3-yl)-3H-imidazo[4,5-b]pyridin-5-yl)phenethyl)-N^17-((S)-1-((2S,4R)-4-hydroxy-2-((4-(4-methylthiazol-5-yl)benzyl)carbamoyl)pyrrolidin-1-yl)-3,3-dimethyl-1-oxobutan-2-yl)-3,6,9,12,15-pentaoxaheptadecanediamide]
T-AKT protein level / AKT degradation (western blot, in words) (AKT [1]): restored effective AKT degradation activity

Cc1ncsc1-c1ccc(CNC(=O)[C@@H]2C[C@@H](O)CN2C(=O)[C@@H](NC(=O)CCOCCOCCOCCOCCOCCC(=O)NCCc2cccc(-c3ccc4nc(-c5cccnc5N)n(-c5ccc(C6(N)CCC6)cc5)c4n3)c2)C(C)(C)C)cc1 [Compound 41, N^1-(3-(3-(4-(1-Aminocyclobutyl)phenyl)-2-(2-aminopyridin-3-yl)-3H-imidazo[4,5-b]pyridin-5-yl)phenethyl)-N^19-((S)-1-((2S,4R)-4-hydroxy-2-((4-(4-methylthiazol-5-yl)benzyl)carbamoyl)pyrrolidin-1-yl)-3,3-dimethyl-1-oxobutan-2-yl)-4,7,10,13,16-pentaoxanonadecanediamide]
T-AKT protein level / AKT degradation (western blot, in words) (AKT [1]): restored effective AKT degradation activity

Cc1ncsc1-c1ccc(CNC(=O)[C@@H]2C[C@@H](O)CN2C(=O)[C@@H](NC(=O)CCCCCCCC(=O)NCCc2cccc(-c3ccc4nc(-c5cccnc5N)n(-c5ccc(C6(N)CCC6)cc5)c4n3)c2)C(C)(C)C)cc1 [Compound 47, N^1-(3-(3-(4-(1-Aminocyclobutyl)phenyl)-2-(2-aminopyridin-3-yl)-3H-imidazo[4,5-b]pyridin-5-yl)phenethyl)-N^9-((S)-1-((2S,4R)-4-hydroxy-2-((4-(4-methylthiazol-5-yl)benzyl)carbamoyl)pyrrolidin-1-yl)-3,3-dimethyl-1-oxobutan-2-yl)nonanediamide]
downstream signaling inhibition (P-AKT, P-PRAS40, P-S6; western blot, in words) [2]: particularly effective | T-AKT protein level / AKT degradation (western blot, in words) (AKT [1]): particularly effective in T-AKT degradation

Cc1ncsc1-c1ccc(CNC(=O)[C@@H]2C[C@@H](O)CN2C(=O)[C@@H](NC(=O)CCCCCCCCC(=O)NCCc2cccc(-c3ccc4nc(-c5cccnc5N)n(-c5ccc(C6(N)CCC6)cc5)c4n3)c2)C(C)(C)C)cc1 [Compound 48, N^1-(3-(3-(4-(1-Aminocyclobutyl)phenyl)-2-(2-aminopyridin-3-yl)-3H-imidazo[4,5-b]pyridin-5-yl)phenethyl)-N^10-((S)-1-((2S,4R)-4-hydroxy-2-((4-(4-methylthiazol-5-yl)benzyl)carbamoyl)pyrrolidin-1-yl)-3,3-dimethyl-1-oxobutan-2-yl)decanediamide]
downstream signaling inhibition (P-AKT, P-PRAS40, P-S6; western blot, in words) [2]: particularly effective | T-AKT protein level / AKT degradation (western blot, in words) (AKT [1]): particularly effective in T-AKT degradation; also recorded: highly effective AKT degraders

Cc1ncsc1-c1ccc(CNC(=O)[C@@H]2C[C@@H](O)CN2C(=O)[C@@H](NC(=O)CCCCCCCCCC(=O)NCCc2cccc(-c3ccc4nc(-c5cccnc5N)n(-c5ccc(C6(N)CCC6)cc5)c4n3)c2)C(C)(C)C)cc1 [Compound 49, N^1-(3-(3-(4-(1-Aminocyclobutyl)phenyl)-2-(2-aminopyridin-3-yl)-3H-imidazo[4,5-b]pyridin-5-yl)phenethyl)-N^11-((S)-1-((2S,4R)-4-hydroxy-2-((4-(4-methylthiazol-5-yl)benzyl)carbamoyl)pyrrolidin-1-yl)-3,3-dimethyl-1-oxobutan-2-yl)undecanediamide]
downstream signaling inhibition (P-AKT, P-PRAS40, P-S6; western blot, in words) [2]: particularly effective | T-AKT protein level / AKT degradation (western blot, in words) (AKT [1]): particularly effective in T-AKT degradation; also recorded: highly effective AKT degraders

Cc1ncsc1-c1ccc([C@H](C)NC(=O)[C@H]2C[C@H](O)CN2C(=O)[C@@H](NC(=O)CCCCCCCCCCNC(=O)CCc2cccc(-c3ccc4nc(-c5cccnc5N)n(-c5ccc(C6(N)CCC6)cc5)c4n3)c2)C(C)(C)C)cc1 [Compound 63, (2R,4S)-1-((S)-2-(11-(3-(3-(3-(4-(1-Aminocyclobutyl)phenyl)-2-(2-aminopyridin-3-yl)-3H-imidazo[4,5-b]pyridin-5-yl)phenyl)propanamido)undecanamido)-3,3-dimethylbutanoyl)-4-hydroxy-N-((S)-1-(4-(4-methylthiazol-5-yl)phenyl)ethyl)pyrrolidine-2-carboxamide]
P-PRAS40 inhibition (western blot verification for proteomics, in words) (P-PRAS40; 18 h, Figure S4): no effect | T-AKT level (western blot verification for proteomics, in words) (AKT [3]; 1 μM, 18 h, Figure S4): no effect | effect on AKT protein levels at high concentrations (in words) (AKT [3]; concentrations up to 10 μM, 24 h): no effect

Cc1ncsc1-c1ccc(CNC(=O)[C@@H]2C[C@@H](O)CN2C(=O)[C@@H](NC(=O)CCCCCCCCCC(=O)N2CCN(CC[C@H](NC(=O)C3(N)CCN(c4ncnc5[nH]ccc45)CC3)c3ccc(Cl)cc3)CC2)C(C)(C)C)cc1 [MS21, reference compound]
T-AKT degradation (in words) (AKT [4]): unable to reduce the AKT protein level | inhibition of colony formation (in words) (SW620 cells): no effect | T-AKT degradation (in words) (AKT [3]; indicated concentrations, 24 h, Figure 7E): largely ineffective
